According to patent US11203591B2, “Substituted 6-azabenzimidazole compounds” (Gilead Sciences, Inc., priority 2018, dated 2021):

Target: human HPK1 (MAP4K1) (Homo sapiens (Human), UniProt Q92918)
Test: HPK1 IC50 Assay (TR-FRET peptide phosphorylation)
Type: biochemical
Settings: recombinant HPK1 kinase domain 0.15 nM, 10 μM ATP, 1 μM STK S1 peptide; geometric mean of multiple experiments
Experimental: The enzymatic activity of human HPK1 (MAP4K1) was monitored in a biochemical assay in the presence or absence of compounds and using a synthetic peptide substrate. An increase in phosphorylation of the peptide by HPK1 was indicative of its kinase activity.
Recombinant HPK1 kinase domain produced via baculovirus infection of insect cells was obtained from Proteros (Proteros Biostructures #PR-0322) and was pre-activated in the presence of 2 mM ATP (Sigma-Aldrich, cat #GE27-2056-01) and 2 mM magnesium chloride for 16 hours at 4° C. The protein reaction mixture was then loaded to a desalting column (Thermo Fisher Scientific, Cat #89889) to remove excess ATP. HPK1 was eluted with buffer containing 20 mM Tris (2-Amino-2-(hydroxymethyl)propane-1,3-diol) pH 8.0, 150 mM NaCl, 2 mM dithiothreitol and 5% glycerol, and was frozen at −80° C. for later use. HPK1 dual phosphorylation was confirmed by mass spectrometry.
Ten nanoliters of test compounds dissolved in DMSO at various concentrations were dispensed into a 384-well ProxiPlate (PerkinElmer #6008289). Five microliters of a solution of recombinant HPK1 diluted in HPK1 kinase assay buffer (50 mM BES [N,N-Bis(2-hydroxyethyl)-2-aminoethanesulfonic acid], pH 7.0; 10 mM magnesium chloride; 0.01% Triton X-100; 1 mM dithiothreitol; 0.01% bovine serum albumin; 0.1 mM sodium orthovanadate) was added to the compound-containing plate and was incubated for 15 minutes at 25° C. Five microliters of a mixture of ATP (Sigma-Aldrich #A6559) and peptide substrate STK S1 (Cisbio #61ST1BLC) diluted in HPK1 kinase assay buffer was then added to start the reaction. Final concentrations were 0.15 nM for HPK1, 10 μM for ATP, and 1 μM for the STK S1 peptide substrate. The reaction mixture was incubated at 25° C. for 3 hours and was stopped with the addition of 10 μl of an EDTA (Ethylenediaminetetraacetic acid)-containing detection buffer (Cisbio #62SDBRDF) supplemented with Europium cryptate-labeled anti-phospho-serine/threonine antibodies (Cisbio #62ST1PEJ) and XL665-labeled streptavidin (Cisbio #610SAXLG). The mixture was incubated for 16 hours at room temperature and peptide phosphorylation was measured by time-resolved fluorescence energy transfer (665 nm/620 nm) on an Envision plate reader (PerkinElmer).
Data in Table 1 were normalized based on positive (staurosporine) and negative (DMSO) controls. Least squares curve fittings were performed using a four-parameter variable slope nonlinear regression model. IC50 is defined as the concentration of compound required to inhibit 50% of maximum phosphorylation. IC50 values from multiple experiments were averaged by geometric mean and the standard deviation was calculated.

human HPK1 (MAP4K1), sequence (Q92918 17-274): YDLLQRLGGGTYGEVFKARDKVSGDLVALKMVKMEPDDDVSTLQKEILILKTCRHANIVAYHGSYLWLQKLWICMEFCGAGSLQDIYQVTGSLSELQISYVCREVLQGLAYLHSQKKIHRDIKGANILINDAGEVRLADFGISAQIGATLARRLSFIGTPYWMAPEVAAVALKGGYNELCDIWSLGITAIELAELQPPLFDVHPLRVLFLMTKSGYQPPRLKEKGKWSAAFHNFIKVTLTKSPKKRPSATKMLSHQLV

| Structure (SMILES) | IC50 [nM] |
| --- | --- |
| CCNC(=O)c1cc(Nc2nc(-c3ccc4c(c3)N([C@H]3C[C@@H](N5CCCCC5)C3)C(=O)C43CCN(C4COC4)CC3)cc3ncn(C(C)C)c23)c(F)cc1C [Example 69] | 0.1 |
| CNC(=O)c1cc(Nc2nc(-c3ccc4c(c3)N([C@H]3C[C@@H](N5CC6C(C5)C6(F)F)C3)C(=O)C43CCN(C4COC4)CC3)cc3ncn(C(C)C)c23)c(F)cc1C (stereo partly shown) [Example 70] | 0.7 |
| CNC(=O)c1cc(Nc2nc(-c3ccc4c(c3)N([C@H]3C[C@@H](N5CC[C@@H](F)C5)C3)C(=O)C43CCN(C4COC4)CC3)cc3ncn(C(C)C)c23)c(F)cc1C [Example 71] | 0.1 |
| CNC(=O)c1cc(Nc2nc(-c3ccc4c(c3)N([C@H]3C[C@@H](N5CC[C@H](F)C5)C3)C(=O)C43CCN(C4COC4)CC3)cc3ncn(C(C)C)c23)c(F)cc1C [Example 72] | 0.2 |
| Cc1ccc(Nc2nc(-c3ccc4c(c3)N([C@H]3C[C@@H](N5CCCCC5)C3)C(=O)C43CCN(C4COC4)CC3)cc3ncn(C(C)C)c23)cc1C(=O)NC(C)C [Example 73] | 0.1 |
| CCNC(=O)c1cc(Nc2nc(-c3ccc4c(c3)N([C@H]3C[C@@H](N5CCCCC5)C3)C(=O)C43CCN(C(C)=O)CC3)cc3ncn(C(C)C)c23)c(F)cc1C [Example 74] | 0.2 |
| CC(=O)N1CCC2(CC1)C(=O)N([C@H]1C[C@@H](N3CCCCC3)C1)c1cc(-c3cc4ncn(C(C)C)c4c(Nc4cc(C(=O)NCC(C)C)c(C)cc4F)n3)ccc12 [Example 75] | 0.2 |
| CC(=O)N1CCC2(CC1)C(=O)N([C@H]1C[C@@H](N3CCCCC3)C1)c1cc(-c3cc4ncn(C(C)C)c4c(Nc4cc(C(=O)NC5CCC5)c(C)cc4F)n3)ccc12 [Example 76] | 0.2 |
| CC(=O)N1CCC2(CC1)C(=O)N([C@H]1C[C@@H](N3C4CCC3COC4)C1)c1cc(-c3cc4ncn(C(C)C)c4c(Nc4cc(C(=O)NC(C)C)c(C)cc4F)n3)ccc12 [Example 77] | 0.06 |
| CC(=O)N1CCC2(CC1)C(=O)N([C@H]1C[C@@H](N3CC4CCC(C3)O4)C1)c1cc(-c3cc4ncn(C(C)C)c4c(Nc4cc(C(=O)NC(C)C)c(C)cc4F)n3)ccc12 [Example 78] | 0.2 |
| CNC(=O)c1cc(Nc2nc(-c3ccc4c(c3)N([C@H]3C[C@@H](N5CCCCC5)C3)C(=O)C4(C)C)cc3ncn(C4CC4)c23)ccc1C [Example 79] | 0.2 |
| CNC(=O)c1cc(Nc2nc(-c3ccc4c(c3)N([C@H]3C[C@@H](NC5CCC(F)(F)CC5)C3)C(=O)C4(C)C)cc3ncn(C(C)C)c23)ccc1C [Example 80] | 0.1 |
| CNC(=O)c1cc(Nc2nc(-c3ccc4c(c3)N([C@H]3C[C@@H](NC5CC(F)(F)C5)C3)C(=O)C4(C)C)cc3ncn(C(C)C)c23)ccc1C [Example 81] | 0.3 |
| CNC(=O)c1cc(Nc2nc(-c3ccc4c(c3)N([C@H]3C[C@@H](NCC(C)(C)F)C3)C(=O)C4(C)C)cc3ncn(C(C)C)c23)ccc1C [Example 82] | 0.08 |
| CC(=O)N1CCC2(CC1)C(=O)N([C@H]1C[C@@H](N3CCCCC3)C1)c1cc(-c3cc4ncn(C(C)C)c4c(Nc4ccc(C)c(C(=O)NC(C)C)c4)n3)ccc12 [Example 83, 5-((6-(1′-acetyl-2-oxo-1-((1s,3s)-3-(piperidin-1-yl)cyclobutyl)spiro[indoline-3,4′-piperidin]-6-yl)-3-isopropyl-3H-imidazo[4,5-c]pyridin-4-yl)amino)-N-isopropyl-2-methylbenzamide] | 0.1 |
| CNC(=O)c1cc(Nc2nc(-c3ccc4c(c3)N([C@H]3C[C@@H](N5CCCCC5)C3)C(=O)C43CCN(C(=O)C4(O)CC4)CC3)cc3ncn(C4CC4)c23)ccc1C [Example 84] | 0.2 |
| CNC(=O)c1cc(Nc2nc(-c3ccc4c(c3)N([C@H]3C[C@@H](N5CCCCC5)C3)C(=O)C43CCN(C(=O)C4(C)COC4)CC3)cc3ncn(C4CC4)c23)ccc1C [Example 85] | 0.1 |

| Structure (SMILES) | IC50 [nM] |
| --- | --- |
| COCCNC(=O)c1cc(Nc2nc(-c3ccc4c(c3)N([C@H]3C[C@@H](N5CCCCC5)C3)C(=O)C43CCN(C(C)=O)CC3)cc3ncn(C(C)C)c23)c(F)cc1C [Example 86] | 0.2 |
| CC[C@@H](C)NC(=O)c1cc(Nc2nc(-c3ccc4c(c3)N([C@H]3C[C@@H](N5CCCCC5)C3)C(=O)C43CCN(C(C)=O)CC3)cc3ncn(C(C)C)c23)c(F)cc1C [Example 87] | 0.3 |
| CC[C@H](C)NC(=O)c1cc(Nc2nc(-c3ccc4c(c3)N([C@H]3C[C@@H](N5CCCCC5)C3)C(=O)C43CCN(C(C)=O)CC3)cc3ncn(C(C)C)c23)c(F)cc1C [Example 88] | 0.2 |
| CC(=O)N1CCC2(CC1)C(=O)N([C@H]1C[C@@H](N3CCCCC3)C1)c1cc(-c3cc4ncn(C(C)C)c4c(Nc4cc(C(=O)NC(C)C)c(Cl)cc4F)n3)ccc12 [Example 89] | 0.2 |
| COCC1(NC(=O)c2cc(Nc3nc(-c4ccc5c(c4)N([C@H]4C[C@@H](N6CCCCC6)C4)C(=O)C54CCN(C(C)=O)CC4)cc4ncn(C(C)C)c34)c(F)cc2C)CC1 [Example 90] | 0.3 |
| CC(=O)N1CCC2(CC1)C(=O)N([C@H]1C[C@@H](N3CCCCC3)C1)c1cc(-c3cc4ncn(C(C)C)c4c(Nc4cc(C(=O)NC5CC5)c(C)cc4F)n3)ccc12 [Example 91] | 0.1 |
| CNC(=O)c1cc(Nc2nc(-c3ccc4c(c3)N([C@H]3C[C@@H](N5CCCCC5)C3)C(=O)C43CCN(C(C)=O)CC3)cc3ncn(C(C)C)c23)c(F)cc1C [Example 92] | 0.08 |
| CNC(=O)c1cc(Nc2nc(-c3ccc4c(c3)N([C@H]3C[C@@H](N5CCCCC5)C3)C(=O)C43CCN(C(C)=O)CC3)cc3ncn(C4CC4)c23)c(F)cc1Cl [Example 93] | 0.2 |
| CC(=O)N1CCC2(CC1)C(=O)N([C@H]1C[C@@H](N3CCCCC3)C1)c1cc(-c3cc4ncn(C(C)C)c4c(Nc4ccc(C)c(C(=O)NC5CC5)c4)n3)ccc12 [Example 94] | 0.06 |
| CNC(=O)c1cc(Nc2nc(-c3ccc4c(c3)N([C@H]3C[C@@H](N5CCCCC5)C3)C(=O)C43CCN(C(C)=O)CC3)cc3ncn(C4CC4)c23)c(F)cc1C [Example 95] | 0.3 |
| CNC(=O)c1cc(Nc2nc(-c3ccc4c(c3)N([C@H]3C[C@@H](N5CCCCC5)C3)C(=O)C43CCN(C(C)=O)CC3)cc3ncn(C4CC4)c23)cc(C)c1C [Example 96] | 0.2 |
| CNC(=O)c1ccc(F)c(Nc2nc(-c3ccc4c(c3)N([C@H]3C[C@@H](N5CCCCC5)C3)C(=O)C43CCN(C(C)=O)CC3)cc3ncn(C4CC4)c23)c1 [Example 97] | 0.4 |
| CNC(=O)c1cc(Nc2nc(-c3ccc4c(c3)N([C@H]3C[C@@H](N5CCCCC5)C3)C(=O)C43CCN(C(=O)C(C)(C)C)CC3)cc3ncn(C4CC4)c23)ccc1C [Example 98] | 0.09 |
| Cc1cc(F)c(Nc2nc(-c3ccc4c(c3)N([C@H]3C[C@@H](N5CCCCC5)C3)C(=O)C43CCN(C4COC4)CC3)cc3ncn(C(C)C)c23)cc1C(=O)NC(C)C [Example 99] | 0.2 |
| Cc1cc(F)c(Nc2nc(-c3ccc4c(c3)N([C@H]3C[C@@H](N5CCC(C)(C)C5)C3)C(=O)C43CCN(C4COC4)CC3)cc3ncn(C(C)C)c23)cc1C(=O)NC(C)C [Example 100] | 0.3 |
| CCn1cnc2cc(-c3ccc4c(c3)N([C@H]3C[C@@H](N5CCCCC5)C3)C(=O)C4(C)C)nc(Nc3cc(C(=O)NC)c(C)cc3F)c21 [Example 101] | 0.2 |
| CCn1cnc2cc(-c3ccc4c(c3)N([C@H]3C[C@@H](N5CCCCC5)C3)C(=O)C4(C)C)nc(Nc3ccc(C)c(C(=O)NC)c3)c21 [Example 102] | 0.09 |
